We go through two compounds from patent US20230119355A1, “PHARMACEUTICAL COMPOSITIONS OF A KINASE INHIBITOR” (AURIGENE DISCOVERY TECHNOLOGIES LIMITED, priority 2020, published 2023).

Where a name gives a salt, the structure may show the parent alone. Read-outs that look alike come from different tables or passages of the source.

The nature of data set [1]: Water solubility / ionisation at physiological pH. Format: physicochemical.
A short description of data set [2]: Bioavailability after oral administration. The data set is classed as in vivo.

For `Cn1cc(-c2ccc3c(c2)ncn3-c2cc(NS(=O)(=O)C3CC3)cc(-c3ccc(F)cc3F)c2)cn1` [Compound (I), N-(2′,4′-difluoro-5-(5-(1-methyl-1H-pyrazol-4-yl)-1H-benzo[d]imidazol-1-yl)-[1,1′-biphenyl]-3-yl)cyclopropanesulfonamide], in data set [1] (physiological pH range), the solubility in water result was “practically insoluble”. Also, in data set [1] (within the physiological pH range), the ionisation state entry is given as “neutral”. Further, the “bioavailability after oral administration” value in data set [2] was “very low”.

`Cn1cc(-c2ccc3c(c2)ncn3-c2cc(NS(=O)(=O)C3CC3)cc(-c3ccc(F)cc3F)c2)cn1` [Compound (I) HCl salt, hydrochloride salt of N-(2′,4′-difluoro-5-(5-(1-methyl-1H-pyrazol-4-yl)-1H-benzo[d]imidazol-1-yl)-[1,1′-biphenyl]-3-yl)cyclopropanesulfonamide]: the “water solubility of the salt form” value in data set [1] (hydrochloride salt forms compared with compound (I)) is listed as “enhanced”. The “bioavailability after oral administration” value in data set [2] (listed as Hydrochloride salt forms of compound (I)) is listed as “improved”.
